The text below walks through data of patent publication US12037339B2, “Substituted imidazoles as GLP-1 receptor agonists” (Eccogene Inc., priority 2020, dated 2024).

For orientation: pEC50 means the negative decadic logarithm of the EC50, by convention in mol/L. The low end stands for a large EC50, the high end for a small EC50.

Structures are written as SMILES. pEC50: −log10 of the molar value.

The target of the experiment is (Homo sapiens, UniProt P43220). Description: h-GLP-1 activity assay (cAMP HTRF, HEK293 cells with stable expression of human GLP-1). In kind it is cell-based. The note with it: relative EC50, 10 nM human GLP-1 set as 100% response, 30 min at 37° C. In a few lines: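 cAMP accumulation (HTRF, 665/615 nm, interpolated from standard curve) after 30 min, 37 °C compound treatment of stable human GLP-1 HEK293 cells with 0.5 mM IBMX. EC50 by 4-parameter regression, reported relative to 10 nM GLP-1 (7-37) as full response.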
Chain of (Homo sapiens, UniProt P43220) (P43220 24-463): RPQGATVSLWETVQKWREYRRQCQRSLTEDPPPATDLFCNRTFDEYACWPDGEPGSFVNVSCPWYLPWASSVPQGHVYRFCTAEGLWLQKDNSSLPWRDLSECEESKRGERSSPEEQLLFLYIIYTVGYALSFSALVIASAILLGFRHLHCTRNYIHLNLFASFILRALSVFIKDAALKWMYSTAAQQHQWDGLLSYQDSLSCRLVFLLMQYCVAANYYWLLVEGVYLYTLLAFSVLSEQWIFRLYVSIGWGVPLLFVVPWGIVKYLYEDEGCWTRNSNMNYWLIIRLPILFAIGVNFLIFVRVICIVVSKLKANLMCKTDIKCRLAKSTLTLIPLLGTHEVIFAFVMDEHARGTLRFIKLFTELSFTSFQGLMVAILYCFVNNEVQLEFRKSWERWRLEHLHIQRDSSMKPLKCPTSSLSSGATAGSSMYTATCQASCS
On the technique in general: In TR-FRET formats the signal depends on donor and acceptor labels being close together.
`C[C@H]1c2c(nn(-c3ccc(F)c(C4CC4)c3)c2-n2ccn(-c3ccc4c(cnn4C)c3F)c2=O)CCN1C(=O)c1nc2cc([C@@H]3CCOC(C)(C)C3)ccn2c1C1(c2noc(=O)[nH]2)CC1` (single isomer, unassigned) [Compound 98] had a pEC50 of 7.00 to 7.70.

Regarding `Cc1cc(-n2nc3c(c2-n2ccn(-c4ccn5cncc5c4)c2=O)[C@H](C)N(C(=O)c2cn4cc([C@H]5CCOC(C)(C)C5)ccc4c2C2(c4noc(=O)[nH]4)CC2)CC3)cc(C)c1F` (single isomer, unassigned) [Compound 16], the pEC50 is 7.00 to 7.70.

The compound `C[C@H]1c2c(nn(-c3ccc(F)c(C4CC4)c3)c2-n2ccn(-c3ccc4c(cnn4C)c3F)c2=O)CCN1C(=O)c1nn2cc([C@@H]3CCOC(C)(C)C3)ccc2c1C1(c2noc(=O)[nH]2)CC1` (single isomer, unassigned) [Compound 84] showed a pEC50 of more than 7.70.

Consider `C[C@H]1c2c(nn(-c3ccc(F)c(Cl)c3)c2-n2ccn(-c3ccc4c(cnn4C)c3F)c2=O)CCN1C(=O)c1cn2cc([C@@H]3CCOC(C)(C)C3)ccc2c1C1(c2noc(=O)[nH]2)CC1` (single isomer, unassigned) [Compound 12], for which the pEC50 was more than 7.70.

Compound `C[C@H]1c2c(nn(-c3ccc(F)c(OC(F)(F)F)c3)c2-n2ccn(-c3ccc4c(cnn4C)c3F)c2=O)CCN1C(=O)c1cn2cc([C@@H]3CCOC(C)(C)C3)ccc2c1C1(c2noc(=O)[nH]2)CC1` (single isomer, unassigned) [Compound 80] gave a pEC50 of more than 7.70.

Consider `C[C@@H]1c2c(-n3ccn(-c4ccc5c(cnn5C)c4F)c3=O)c(-c3cc(Cl)c(F)c(Cl)c3)nn2CCN1C(=O)c1cc2cc([C@@H]3CCOC(C)(C)C3)ccc2n1C1(c2noc(=O)[nH]2)CC1` (single isomer, unassigned) [Compound 51], for which the negative-log EC50 (pEC50) was more than 7.70.

As to `Cc1cc(-n2nc3c(c2-n2ccn(-c4ccc5c(cnn5C)c4F)c2=O)[C@H](C)N(C(=O)c2cc4cc(C5CCOC(C)(C)C5)ccc4n2-c2cccc(-c4noc(=O)[nH]4)c2)CC3)cc(C)c1F` (mixture of isomers) [Compound 30, 3-(3-(5-(2,2-dimethyltetrahydro-2H-pyran-4-yl)-2-((S)-3-(3-(4-fluoro-1-methyl-1H-indazol-5-yl)-2-oxo-2,3-dihydro-1H-imidazol-1-yl)-2-(4-fluoro-3,5-dimethylphenyl)-4-methyl-4,5,6,7-tetrahydro-2H-pyrazolo[4,3-c]pyridine-5-carbonyl)-1H-indol-1-yl)phenyl)-1,2,4-oxadiazol-5(4H)-one], the pEC50 is 7.00 to 7.70.

`Cc1cc(-n2nc3c(c2-n2ccn(-c4ccc5c(cnn5C)c4F)c2=O)[C@H](C)N(C(=O)c2cc4cc([C@H]5CCOC(C)(C)C5)ccn4c2C2(c4noc(=O)[nH]4)CC2)CC3)cc(C)c1F` (single isomer, unassigned) [Compound 9] had a negative-log EC50 (pEC50) of 7.00 to 7.70.

As to `Cc1cc(-n2nc3c(c2-n2ccn(-c4ccc5c(cnn5C)c4F)c2=O)[C@H](C)N(C(=O)c2cn4cc([C@@H]5CCOC(C)(C)C5)ccc4c2C2(c4noc(=O)[nH]4)CC2)CC3)ccc1F` (single isomer, unassigned) [Compound 13], the pEC50 was more than 7.70.

Compound `C[C@H]1c2c(nn(C3CCC(F)(F)CC3)c2-n2ccn(-c3ccc4c(cnn4C)c3F)c2=O)CCN1C(=O)c1cc2cc([C@H]3CCOC(C)(C)C3)ccc2n1C1(c2noc(=O)[nH]2)CC1` (single isomer, unassigned) [Compound 43] gave a negative-log EC50 (pEC50) of less than 7.00.

Consider `C[C@H]1c2c(nn(-c3ccc(F)c(OC(F)(F)F)c3)c2-n2ccn(-c3ccc4c(cnn4C)c3F)c2=O)CCN1C(=O)c1cc2cc([C@@H]3CCOC(C)(C)C3)ccn2c1C1(c2noc(=O)[nH]2)CC1` (single isomer, unassigned) [Compound 81], for which the pEC50 was more than 7.70.

`C[C@H]1c2c(-n3ccn(-c4ccc5c(cnn5C)c4F)c3=O)c(-c3ccc(F)c(Cl)c3)nn2CCN1C(=O)c1cc2cc([C@@H]3CCOC(C)(C)C3)ccc2n1C1(c2noc(=O)[nH]2)CC1` (single isomer, unassigned) [Compound 50] had a pEC50 of less than 7.00.

For the compound `C[C@H]1c2c(nn(-c3ccc(F)c(C4CC4)c3)c2-n2ccn(-c3ccc4c(cnn4C)c3F)c2=O)CCN1C(=O)c1cc2c(F)c([C@@H]3CCOC(C)(C)C3)ccn2c1C1(c2noc(=O)[nH]2)CC1` (single isomer, unassigned) [Compound 96], the negative-log EC50 (pEC50) is more than 7.70.

In turn, `COc1ccc(-c2nn3c(c2-n2ccn(-c4ccc5c(cnn5C)c4F)c2=O)C(C)N(C(=O)c2cc4cc([C@@H]5CCOC(C)(C)C5)ccc4n2C2(c4noc(=O)[nH]4)CC2)CC3)cc1` (single isomer, unassigned) [Compound 28] had a pEC50 of 7.00 to 7.70.

In turn, `C[C@H]1c2c(nn(-c3ccc(F)c(C4CC4)c3)c2-n2ccn(-c3ccc4c(cnn4C)c3F)c2=O)CCN1C(=O)c1c(C2(c3noc(=O)[nH]3)CC2)c2ccc([C@@H]3CCOC(C)(C)C3)cn2c1Cl` (single isomer, unassigned) [Compound 85] showed a pEC50 of 7.00 to 7.70.

Take `Cc1cc(-n2nc3c(c2-n2ccn(-c4ccc5c(cnn5C)c4F)c2=O)[C@H](C)N(C(=O)c2cc4cc(C5CCOC(C)(C)C5)ccc4n2-c2ccccc2C(=O)O)CC3)cc(C)c1F` (mixture of isomers) [Compound 54, 2-(5-(2,2-dimethyltetrahydro-2H-pyran-4-yl)-2-((S)-3-(3-(4-fluoro-1-methyl-1H-indazol-5-yl)-2-oxo-2,3-dihydro-1H-imidazol-1-yl)-2-(4-fluoro-3,5-dimethylphenyl)-4-methyl-4,5,6,7-tetrahydro-2H-pyrazolo[4,3-c]pyridine-5-carbonyl)-1H-indol-1-yl)benzoic acid]: the pEC50 was more than 7.70.

Compound `COCC12CCC(n3ccn(-c4c(-c5ccc(F)cc5)nn5c4[C@H](C)N(C(=O)c4cc6cc([C@H]7CCOC(C)(C)C7)ccc6n4[C@@]4(c6noc(=O)[nH]6)C[C@@H]4C)CC5)c3=O)(CC1)CC2` (single isomer, unassigned) [Compound 63] had a pEC50 of less than 7.00.

`C[C@@H]1c2c(-n3ccn(-c4ccc5c(cnn5C)c4F)c3=O)c(-c3ccc(F)cc3)nn2CCN1C(=O)c1cc2cc([C@H]3CCOC(C)(C)C3)ccc2n1C1(c2noc(=O)[nH]2)CC1` (single isomer, unassigned) [Compound 32]: the pEC50 was less than 7.00.

The compound `C[C@H]1c2c(nn(-c3cc(F)c(F)c(F)c3)c2-n2ccn(-c3ccc4c(cnn4C)c3F)c2=O)CCN1C(=O)c1cn2cc([C@@H]3CCOC(C)(C)C3)ccc2c1C1(c2noc(=O)[nH]2)CC1` (single isomer, unassigned) [Compound 75] had a pEC50 of more than 7.70.

In turn, `Cc1cc(-n2nc3c(c2-n2ccn(-c4ccn5c(C)ncc5c4)c2=O)[C@H](C)N(C(=O)c2cn4cc([C@@H]5CCOC(C)(C)C5)ccc4c2C2(c4noc(=O)[nH]4)CC2)CC3)cc(C)c1F` (single isomer, unassigned) [Compound 17] gave a pEC50 of more than 7.70.

The compound `Cc1cc(-c2ccc3c(c2)cc(C(=O)N2CCn4nc(-c5ccc(F)cc5)c(-n5ccn(-c6ccc7c(cnn7C)c6F)c5=O)c4C2)n3Cc2noc(=O)[nH]2)ccn1` [Compound 58, 3-((2-(3-(3-(4-fluoro-1-methyl-1H-indazol-5-yl)-2-oxo-2,3-dihydro-1H-imidazol-1-yl)-2-(4-fluorophenyl)-4,5,6,7-tetrahydropyrazolo[1,5-a]pyrazine-5-carbonyl)-5-(2-methylpyridin-4-yl)-1H-indol-1-yl)methyl)-1,2,4-oxadiazol-5(4H)-one] had a pEC50 of more than 7.70.
